Test results: US6573078B1, “Compounds which inhibit HIV replication” (priority 1992, dated 2003)

Assays:
Type in all cases: cell-based
HIV-1LAI virus = test: Peptide blockade of HIV-1 induced cell-cell fusion (syncytia formation; Molt4 cells co-cultivated with chronically infected CEM cells); conditions: for No. Syncytia/well: Table 3, ctrl cells only = 85
Protocol: The initial screen for antiviral activity of the peptides shown in FIG. 1 was for blockade of syncytium formation induced by overnight co-cultivation of uninfected Molt4 cells with chronically infected (HIV-1IIIB) CEM cells.
Approximately 7×10^4 Molt cells were incubated with 1×10^4 CEM cells chronically infected with the HIV-1LAI virus in 96 well plates (one-half area cluster plates;Costar. Cambridge, Mass.) in a final volume of […] culture media in accordance with known techniques (T. Matthews et al., Proc. Natl. Acad. Sci. U.S.A. 84, 5424 (1987)). Peptide inhibitors were added in a volume of […] and the cell mixtures were incubated for 24 hr at 37° C. At that time point, multinucleated giant cells were estimated by microscopic examination at a 40× magnification which allowed visualization of the entire well in a single field.

HIV-1LAI [1] = test: Peptide inhibition of infection by cell-free virus (neutralization assay; AA5 cells, RT activity readout)
Protocol: Cell cultures were maintained in 96-well microtiter plates for 8 days by addition of fresh medium (but no further addition of peptides) every other day. On the eighth day post-infection, supernatant was tested for reverse transcriptase activity as evidence of successful infection.
The micro RT assay was adapted from Goff et al. (J. Virol. 38, 239 (1981)) and Willey et al. (J. Virol. 62, 139 (1988)). Supernatants from virus/cell cultures are made 1% in Triton-X100. A […] sample of supernatant was added to 50 ml of RT cocktail in a 96 well U bottom microtiter plate and the samples incubated at […] for 90 min. The cocktail contained 75 mM KCl, 2 mM dithiothreitol, 5 mm Mgcl2l 5 mg/ml poly A (Pharmacia cat. No. 27-4110-01), 0.25 units/ml oligo dT (Pharmacia cat. No. 27-7858-01), 0.05% NP40, 50 mM Tris-HC1, pH 7.8, 0.5 mM non-radioactive dTTP, and 10 mCi/ml ^32p-dTTP (Amersham cat. No. PB.10167). After the incubation period, 40 ml of reaction mixture was applied to a Schleicher and Schuell NA45 membrane (or DE81 paper) saturated in 2×SSC buffer (0.3M NaCl and […]) held in a Schleicher and Schuell Minifold over one sheet of GB003 filter paper. Each well of the minifold was washed four times with […] 2×SSC. The membrane was removed from the minifold and washed 2 more times in a pyrex dish with an excess of 2×SSC. Finally the membrane was drained on absorbent paper, placed on Whatman #3 paper, covered with saran wrap, and exposed to film overnight.
The HIV1LAI virus was obtained from R. Gallo (see M. Popovic et al., Science 224, 497 (1984)) and propagated in CEM cells cultured in RPMI 1640 containing 10-% FCS. Supernatant from the infected CEM cells was passed through a […] and the infectious titer estimated in a microinfectivity assay using the AA5 cell line to support virus replication. For this purpose 25 ml of serially diluted virus was added to 75 ml AA5 cells at 2×10^5/ml in a 96 well microtiter plate. Each virus dilution was tested in triplicate. Cells were cultured for eight days by addition of fresh medium every other day. On day 8 post infection supernatant samples were tested for virus replication as evidenced by RT activity released to the supernatant in accordance with the procedure described above. The TCID50 was calculated according to the Reed and Muench formula in accordance with known techniques. See L. Reed et al., Amer. J. Hygiene 27, 493 (1938) . The titer of the HIV-1LAI stock used for these studies, as measured on the AA5 cell line, was approximately 1×10^7TCID50/ml. The two primary isolates were obtained from PBMCs of two infected donors, one from Brazil (HIV-1Br3) and the other Trinidad (HIV-1Q72775) by co-cultivation with PHA-blasted normal donor PBMCs in RPMI 1640 containing IL2. The infectious titers of the primary virus stocks were estimated by titration onto normal human PHA blasted PBMCs in a 96 well microtiter plate, again using RT activity released to the supernatant as evidence for successful infection. The infectious titer of both of these isolates was estimated to be approximately 1×10^3 TCID100/ml.
The peptides were next tested for blockade of infection by cell-free virus. The results shown in FIG. 3 are representative of several experiments in which the DP-107, 125, and (CS3) peptides were compared for potency in the blockade of HIVLAI, infection of AA5 cells. Each level of peptide was incubated in triplicate with about 500 TCID50 of virus and cells. After 7 days of culture, cell-free supernatant was tested for the presence of RT activity as a measure of successful infection.

HIV-1LAI [2] = test: Peptide inhibition of PBMC infection by prototypic isolate (RT activity readout); conditions: FIG. 5
Protocol: (§1) About 25 TCID100 of two primary isolates and HIV-1LAI were added to […] human PBMCs (about 1.5×10^6/ml) containing the indicated final concentrations of test peptide or 5T4. Each treatment condition was tested in duplicate and the cells were cultured in RPMI1640 containing 10% FCS 5% IL2. Four days post infection an equal number of fresh PBMCs were added to each well. This step allows for further expansion of virus and increases the […] in the final RT assay. Supernatant was harvested 8 days after infection and tested for the presence of reverse transcriptase activity.
(§2) The micro RT assay was adapted from Goff et al. (J. Virol. 38, 239 (1981)) and Willey et al. (J. Virol. 62, 139 (1988)). Supernatants from virus/cell cultures are made 1% in Triton-X100. A […] sample of supernatant was added to 50 ml of RT cocktail in a 96 well U bottom microtiter plate and the samples incubated at 370° C. for 90 min. […]
(§3) The HIV1LAI virus was obtained from R. Gallo (see M. Popovic et al., Science 224, 497 (1984)) and propagated in CEM cells cultured in RPMI 1640 containing 10-% FCS. […] The TCID50 was calculated according to the Reed and Muench formula in accordance with known techniques. […] The titer of the HIV-1LAI stock used for these studies, as measured on the AA5 cell line, was approximately 1×10^7TCID50/ml. […]

[3] = system: two primary HIV-1 isolates (HIV-1Br3, HIV-1Q72775); test: Peptide inhibition of PBMC infection by primary isolates (RT activity readout); conditions: FIG. 5
Protocol: as §1, §2, §3

In the case of “CGNNLLRAIEAQQHLLQLTVWGIKQLQARILAVERYLKDQ (CGGNNLLRAIEAQQHLLQLTVWGIKQLQARILAVERYLKDQ) [DP-125]”, the “Syncytia Number” value (HIV-1LAI virus; EXP. 2, peptide concentration 1.25 micrograms/ml, 0 peptide = 93) is reported as 35, the “Syncytia Number” value (HIV-1LAI virus; EXP. 2, peptide concentration 2.5 micrograms/ml, 0 peptide = 93) is reported as 3 and the “Syncytia Number” value (HIV-1LAI virus; EXP. 2, peptide concentration 5 micrograms/ml, 0 peptide = 93) is reported as 0. The “Syncytia Number” value (HIV-1LAI virus; EXP. 2, peptide concentration 10 micrograms/ml, 0 peptide = 93) was 0, the “Syncytia Number” value (HIV-1LAI virus; EXP. 2, peptide concentration 20 micrograms/ml, 0 peptide = 93) was 0 and the “Syncytia Number” value (HIV-1LAI virus; EXP. 2, peptide concentration 40 micrograms/ml, 0 peptide = 93) was 0. The “Syncytia Number” value (HIV-1LAI virus; EXP. 3, peptide concentration 1.25 micrograms/ml, 0 peptide = 76) was 0, the “Syncytia Number” value (HIV-1LAI virus; EXP. 3, peptide concentration 2.5 micrograms/ml, 0 peptide = 76) was 0 and the “Syncytia Number” value (HIV-1LAI virus; EXP. 3, peptide concentration 5 micrograms/ml, 0 peptide = 76) was 0. The “Syncytia Number” value (HIV-1LAI virus; EXP. 3, peptide concentration 10 micrograms/ml, 0 peptide = 76) was 0, the “Syncytia Number” value (HIV-1LAI virus; EXP. 3, peptide concentration 20 micrograms/ml, 0 peptide = 76) was 0 and the “Syncytia Number” value (HIV-1LAI virus; EXP. 3, peptide concentration 40 micrograms/ml, 0 peptide = 76) was 0. The “No. Syncytia/well” value (HIV-1LAI virus; peptide concentration 1.25 ug/ml on IIIB) was 0, the “No. Syncytia/well” value (HIV-1LAI virus; peptide concentration 2.5 ug/ml on IIIB) was 0 and the “No. Syncytia/well” value (HIV-1LAI virus; peptide concentration 5 ug/ml on IIIB) was 0. For the same sequence, the “No. Syncytia/well” value (HIV-1LAI virus; peptide concentration 10 ug/ml on IIIB) was 0, the “No. Syncytia/well” value (HIV-1LAI virus; peptide concentration 20 ug/ml on IIIB) was 0 and the “No. Syncytia/well” value (HIV-1LAI virus; peptide concentration 40 ug/ml on IIIB) was 0. The “Fusion: quantity of compound required for 90% reduction in number of syncytia” value (HIV-1LAI virus; control = 90 syncytia) was under 1 µg/mL, the “Concentration required for inhibition relative to DP107” value (HIV-1LAI virus; syncytial blocking assays, Table 1 experiments 2 and 3) was “one-half to one-fourth” and the “Neutraliz: quantity of compound required for 90% reduction in infectivity” value (HIV-1LAI [1]) was 2 µg/mL. For the same sequence, the “Dose required for inhibitory effect compared with DP-107 (in words)” value (HIV-1LAI [1]; FIG. 3) was “lower”, the “Blockade of HIVLAI infection of AA5 cells (in words)” value (HIV-1LAI [1]; about 500 TCID50 of virus, RT activity in supernatant, FIG. 3) was “inhibited the de-novo infection process” and the “Inhibition of PBMC infection by prototypic isolate HIVLAI (in words)” value (HIV-1LAI [2]) was “inhibit”. The “Inhibition of PBMC infection by primary isolates (in words)” value [3] was “inhibit”.
